The subject of one experiment is Salmon testes DNA. The experiment is described as follows: DNA intercalators displacing acridine orange, dose response, artefact control for KSHV LANA DNA-binding inhibitor project, biochemical, fluorescence polarization, cherry-picked samples, set 2 (AID 504727). More on the design: species or system Salmonidae. (In general: Fluorescence polarisation rises when a labelled molecule tumbles more slowly, as on binding a larger partner.)

For the next experiment, the target named is ORF 73 (Human herpesvirus 8, UniProt O40947). The experiment in a line: inhibitors of C-LANA binding to LBS DNA, dose response, biochemical, fluorescence polarization, cherry-picked samples (AID 504725).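 Also: fluorescence polarization of a labeled DNA duplex reporting LANA DNA binding; potency is for inhibitors that block LANA binding to the DNA.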 More on the design: species or system Human gammaherpesvirus 8.
Experiment [1] is described as follows: fluorescence interference artefacts, compound only, dose response, artefact control for cardiac thin filament activator project, biochemical, no RTF in test wells (AID 504697).
The next experiment has as its target Troponin, cardiac muscle (Homo sapiens, UniProt P19429+P45379+P63316). The experiment in a line: Fluorescence-based biochemical high throughput dose response assay for activators of the calcium sensitivity of cardiac Regulated Thin Filaments (RTF). [Related pubchem assays (depositor defined):AID493008, AID493018, AID504382, AID504383]. The experiment is classed as protein-complex assay.

The target of a further experiment is Keap1/Nrf2 (Homo sapiens, UniProt Q14145). The experiment in a line: Keap1-Nrf2 protein-protein interaction inhibitors, dose response, biochemical, fluorescence polarization, cherry-picked samples (AID 588683).
The target in experiment [2] is Sphingosine 1-phosphate receptor 4 (Homo sapiens, UniProt O95977). The experiment in a line: Late-stage fluorescence dose response cell-based assay to identify agonists of the Sphingosine 1-Phosphate Receptor 4 (S1P4): purchased compounds EC50. [Related pubchem assays (depositor defined):AID1509, AID1523, AID1563, AID1686, AID1701, AID1801]. The experiment is classed as functional.

A short description of experiment [3]: A small molecule screen for inhibitors of the PhoP region in Salmonella typhi (5) using purified and synthesized compounds. [Related pubchem assays (depositor defined):AID1850, AID1864, AID1985, AID2252, AID2384, AID2612, AID2811, AID434995]. Type of experiment: functional.
The nature of experiment [4]: NIH-3T3 fibroblast cytotoxicity, dose response, cytotoxicity control, cell-based, fluorescence, Alamar Blue, secondary assay (AID 2327).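 Also: NIH-3T3 mouse fibroblasts cultured with fluconazole at 8 µg/mL.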 Type of experiment: functional. (In general: Alamar Blue is a resazurin reagent that responds to reducing activity.)
Experiment [5] is described as follows: inhibitors of firefly luciferase expression or activity, dose response, H4 neuroglioma cells, luminescence (AID 1990). Type of experiment: functional, cell-based.
Experiment [6] deals with BJ. The experiment is described as follows: cytotoxicity toward BJ-TERT fibroblasts, dose response, cell-based, RAS-independent, luminescence (AID 1933). The experiment is classed as functional. The settings on record: Homo sapiens.
Experiment [7] can be described thus: Luminescence Cell-Based Dose Response HTS to Identify Inhibitors of 5'UTR Stem-Loop Driven Prion Protein mRNA Translation in H4 Neuroglioblastoma Cells. [Related pubchem assays: 1827 (Project Summary), 1813 (Primary HTS)]. The experiment is classed as functional.
The nature of experiment [8]: inhibitors of SNCA 5'UTR-driven reporter translation, confirmation, H4 neuroglioma cells, luminescence (AID 1988). The experiment is classed as functional, cell-based.
Experiment [9] has as its system BJ. The experiment in a line: cells. The experiment is classed as functional, cell-based. The conditions noted are these: Homo sapiens.
Experiment [10] is described as follows: C. albicans growth with fluconazole, confirmation, fluorescence, retest (AID 2467). Type of experiment: functional, cell-based.
Experiment [11] relates to BJ. The experiment in a line: cytotoxicity toward BJ-TERT-LT-ST fibroblasts, dose response, cell-based, RAS-independent, luminescence (AID 1935).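 Also: BJ fibroblasts immortalized with TERT plus LT and ST oncogenes.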 The experiment is classed as functional. The conditions noted are these: Homo sapiens.
Experiment [12] is described as follows: cytotoxicity toward DRD oncogenic fibroblasts, dose response, cell-based, non-viral oncogenic, luminescence (AID 1934). Type of experiment: functional. The settings on record: Homo sapiens.
A further experiment addresses CAAX prenyl protease 2 (Saccharomyces cerevisiae S288c, UniProt Q03530). Type of experiment: biochemical.
Another experiment has as its system INS1. The experiment is described as follows: beta cell apoptosis inhibitors, cytokine rescue, dose response, luminescence, retest (AID 449756).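 Also: cell death triggered by IL-1 beta plus TNF-alpha plus IFN-gamma mixture; protective hits raise ATP signal compared with cytokine alone wells.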 The experiment is classed as functional, cell-based. The settings on record: Rattus norvegicus.
Experiment [13] has as its target Alkaline phosphatase, placental type (Homo sapiens, UniProt P05187). The experiment in a line: PLAP enzyme inhibitors, confirmation, biochemical, luminescence (AID 1512). Type of experiment: functional.
The target in experiment [14] is T1, Tyrosine-protein phosphatase non-receptor type 7 (Homo sapiens, UniProt P35236).
T1 sequence (P35236 whole entry): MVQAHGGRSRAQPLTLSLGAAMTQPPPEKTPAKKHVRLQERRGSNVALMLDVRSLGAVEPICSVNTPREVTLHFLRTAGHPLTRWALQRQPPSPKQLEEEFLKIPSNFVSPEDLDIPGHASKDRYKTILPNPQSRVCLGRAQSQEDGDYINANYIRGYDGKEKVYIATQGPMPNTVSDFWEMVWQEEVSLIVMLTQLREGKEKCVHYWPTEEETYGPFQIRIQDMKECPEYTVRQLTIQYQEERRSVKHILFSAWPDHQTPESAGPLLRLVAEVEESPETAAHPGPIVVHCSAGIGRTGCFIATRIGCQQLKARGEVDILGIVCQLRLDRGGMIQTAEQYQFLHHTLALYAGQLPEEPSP
The experiment is described as follows: SAR analysis of chemical inhibitors of HePTP using a Fluorescent assay - Set 2. [Related pubchem assays (depositor defined):AID1059, AID1077, AID1661, AID2085, AID521]. Type of experiment: functional.

Experiment [15] concerns the target Dual specificity protein phosphatase 3 (Homo sapiens, UniProt P51452). The experiment in a line: SAR VHR1 Fluorescent Assay for In Vitro dose response studies Set 2. [Related pubchem assays (depositor defined):AID1654, AID1661, AID1878]. The experiment is classed as functional.
The target of experiment [16] is T2, Cannabinoid receptor 2 (Homo sapiens, UniProt P34972). The experiment is described as follows: SAR analysis of antagonists of the Cannabinoid Receptor 2 using an Image-Based Assay - Set 2. [Related pubchem assays (depositor defined):AID1961, AID1965]. Type of experiment: functional.
The target in experiment [17] is G-protein coupled receptor 55 (Homo sapiens, UniProt Q9Y2T6). The experiment in a line: SAR analysis of selective Agonists of GPR55 using an Image-Based Assay - Set 2. [Related pubchem assays (depositor defined):AID1961, AID1965]. The experiment is classed as functional.
Experiment [18] has as its target T2, Cannabinoid receptor 2. The experiment is described as follows: SAR analysis of agonists of the Cannabinoid Receptor 2 using an Image-Based Assay - Set 2. [Related pubchem assays (depositor defined):AID1961, AID1965]. The experiment is classed as functional.
Experiment [19] addresses T3, G-protein coupled receptor 35 (Homo sapiens, UniProt Q9HC97). The experiment in a line: SAR analysis of Agonists of the GPR35 Receptor using an Image-Based Assay - Set 3. [Related pubchem assays (depositor defined):AID1961, AID1965]. Type of experiment: functional.
In experiment [20] the target is T4, Cannabinoid receptor 1 (Homo sapiens, UniProt P21554). The experiment in a line: SAR analysis of antagonists of the Cannabinoid Receptor 1 using an Image-Based Assay - Set 3. [Related pubchem assays (depositor defined):AID1961, AID1965]. Type of experiment: functional.
Experiment [21] concerns the target T4, Cannabinoid receptor 1. The experiment is described as follows: SAR analysis of agonists of the Cannabinoid Receptor 1 using an Image-Based Assay - Set 3. [Related pubchem assays (depositor defined):AID1961, AID1965]. Type of experiment: functional.
Experiment [22] concerns the target T3, G-protein coupled receptor 35. The experiment is described as follows: SAR analysis of Antagonists of the GPR35 Receptor using an Image-Based Assay - Set 4. [Related pubchem assays (depositor defined):[…]]. Type of experiment: functional.
Experiment [23] has as its target Intestinal-type alkaline phosphatase (Homo sapiens, UniProt P09923). The experiment in a line: human intestinal alkaline phosphatase activators, dose response, biochemical, luminescence, uHTS hits (AID 463120). Type of experiment: functional.
Experiment [24] can be described thus: Luminescence Cell-Based Dose Response HTS to Identify Inhibitors of Luciferase Translation or Activity in H4-C Neuroglioblastoma Cells. [Related pubchem assays: 1813 (Primary HTS), 1827 (Project Summary)]. Type of experiment: functional.
Experiment [25] can be described thus: Luminescence Cell-Based Dose Response HTS to Identify Activators of Luciferase Translation or Activity in H4-C Neuroglioblastoma Cells. [Related pubchem assays: 1829 (Project Summary), 1814 (Primary HTS)]. The experiment is classed as functional.
Experiment [26] can be described thus: Luminescence Cell-Based Dose Retest to Confirm Activators of 5'UTR Stem-Loop Driven Alpha-Synuclein mRNA Translation in H4 Neuroglioblastoma Cells. [Related pubchem assays (depositor defined):AID1813, AID1829]. The experiment is classed as functional.
A short description of experiment [27]: Luminescence Cell-Based Dose Response HTS to Identify Activators of 5'UTR Stem-Loop Driven Prion Protein mRNA Translation in H4-C Neuroglioblastoma Cells. [Related pubchem assays: 1829 (Project Summary), 1814 (Primary HTS)]. The experiment is classed as functional.
Experiment [28] in a line: Luminescence Cell-Based Dose HTS Response to Identify Inhibitors of 5'UTR Stem-Loop Driven Prion Protein mRNA Translation in H4-C Neuroglioblastoma Cells. [Related pubchem assays (depositor defined):AID1814, AID1827]. The experiment is classed as functional.
Experiment [29] can be described thus: Luminescence Cell-Based Dose Confirmation HTS to Identify Inhibitors of 5'UTR Stem-Loop Driven Alpha-Synuclein mRNA Translation in H4 Neuroglioblastoma Cells. [Related pubchem assays: 1827 (Project Summary), 1813 (Primary HTS)]. The experiment is classed as functional.
The target in experiment [30] is DNA damage-inducible transcript 3 protein (Mus musculus, UniProt P35639). The experiment is classed as functional, Cricetulus griseus.
In a further experiment the target is X-box-binding protein 1 (Homo sapiens, UniProt P17861). The experiment is classed as functional, Cricetulus griseus.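 Also: confirmatory dose-response counter-screen serving a CHOP assay.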
Another experiment concerns the target Genome polyprotein (dengue virus type 2, UniProt P29990). The experiment in a line: Dengue-2 NS5 methyltransferase inhibitors, primary screen, biochemical, confirmation dose response (AID 588689). Type of experiment: functional.

These results are taken from ChEMBL document CHEMBL1201862, “PubChem BioAssay data set” (2004).

SMILES strings stand for the structures. Activity calls are given as the source filed them.

T3 sequence (Q9HC97 whole entry): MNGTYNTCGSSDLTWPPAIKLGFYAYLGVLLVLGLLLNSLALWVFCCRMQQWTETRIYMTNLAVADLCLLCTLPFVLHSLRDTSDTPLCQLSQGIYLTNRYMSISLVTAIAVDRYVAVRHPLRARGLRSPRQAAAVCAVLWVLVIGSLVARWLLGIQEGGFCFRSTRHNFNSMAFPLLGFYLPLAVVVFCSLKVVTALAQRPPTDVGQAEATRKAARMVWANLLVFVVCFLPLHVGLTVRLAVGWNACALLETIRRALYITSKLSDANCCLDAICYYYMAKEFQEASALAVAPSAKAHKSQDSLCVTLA
T2 sequence (P34972 whole entry): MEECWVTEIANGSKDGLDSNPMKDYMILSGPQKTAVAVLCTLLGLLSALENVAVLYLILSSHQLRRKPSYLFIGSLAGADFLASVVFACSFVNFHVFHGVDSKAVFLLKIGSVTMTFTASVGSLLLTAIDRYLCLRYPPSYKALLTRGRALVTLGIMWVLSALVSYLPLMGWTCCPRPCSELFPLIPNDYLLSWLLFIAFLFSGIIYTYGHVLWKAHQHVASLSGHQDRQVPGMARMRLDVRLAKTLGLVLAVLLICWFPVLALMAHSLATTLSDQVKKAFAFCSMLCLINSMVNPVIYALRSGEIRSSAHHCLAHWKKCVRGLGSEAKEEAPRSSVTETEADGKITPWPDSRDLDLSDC
T4 sequence (P21554 whole entry): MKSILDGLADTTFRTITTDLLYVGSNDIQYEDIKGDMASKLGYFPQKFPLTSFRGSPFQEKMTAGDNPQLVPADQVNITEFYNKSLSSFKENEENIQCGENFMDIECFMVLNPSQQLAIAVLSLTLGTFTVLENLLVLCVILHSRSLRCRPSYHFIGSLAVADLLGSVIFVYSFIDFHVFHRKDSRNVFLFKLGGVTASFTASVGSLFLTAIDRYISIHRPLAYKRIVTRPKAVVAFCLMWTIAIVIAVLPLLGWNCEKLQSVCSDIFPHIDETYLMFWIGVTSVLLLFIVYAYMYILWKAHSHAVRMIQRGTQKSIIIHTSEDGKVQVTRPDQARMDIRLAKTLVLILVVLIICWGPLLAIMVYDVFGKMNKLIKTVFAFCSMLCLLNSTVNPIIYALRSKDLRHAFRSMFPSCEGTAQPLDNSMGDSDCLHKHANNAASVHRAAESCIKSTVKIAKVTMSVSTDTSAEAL
Chain of Intestinal-type alkaline phosphatase (P09923 whole entry): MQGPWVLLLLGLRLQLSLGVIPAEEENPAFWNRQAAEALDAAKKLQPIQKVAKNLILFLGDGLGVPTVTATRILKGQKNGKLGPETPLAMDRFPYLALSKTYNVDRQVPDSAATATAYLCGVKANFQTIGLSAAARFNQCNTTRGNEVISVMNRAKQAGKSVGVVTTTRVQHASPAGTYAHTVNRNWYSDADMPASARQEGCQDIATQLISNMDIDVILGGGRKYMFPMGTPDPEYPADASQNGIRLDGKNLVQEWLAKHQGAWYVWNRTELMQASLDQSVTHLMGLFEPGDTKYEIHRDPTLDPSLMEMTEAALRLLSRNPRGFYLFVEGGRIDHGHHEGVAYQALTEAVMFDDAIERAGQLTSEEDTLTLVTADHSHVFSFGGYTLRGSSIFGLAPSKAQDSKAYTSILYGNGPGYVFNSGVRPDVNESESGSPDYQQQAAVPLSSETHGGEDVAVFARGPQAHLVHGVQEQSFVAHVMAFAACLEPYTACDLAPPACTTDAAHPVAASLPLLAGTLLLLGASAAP
Chain of Keap1/Nrf2 (Q16236 whole entry): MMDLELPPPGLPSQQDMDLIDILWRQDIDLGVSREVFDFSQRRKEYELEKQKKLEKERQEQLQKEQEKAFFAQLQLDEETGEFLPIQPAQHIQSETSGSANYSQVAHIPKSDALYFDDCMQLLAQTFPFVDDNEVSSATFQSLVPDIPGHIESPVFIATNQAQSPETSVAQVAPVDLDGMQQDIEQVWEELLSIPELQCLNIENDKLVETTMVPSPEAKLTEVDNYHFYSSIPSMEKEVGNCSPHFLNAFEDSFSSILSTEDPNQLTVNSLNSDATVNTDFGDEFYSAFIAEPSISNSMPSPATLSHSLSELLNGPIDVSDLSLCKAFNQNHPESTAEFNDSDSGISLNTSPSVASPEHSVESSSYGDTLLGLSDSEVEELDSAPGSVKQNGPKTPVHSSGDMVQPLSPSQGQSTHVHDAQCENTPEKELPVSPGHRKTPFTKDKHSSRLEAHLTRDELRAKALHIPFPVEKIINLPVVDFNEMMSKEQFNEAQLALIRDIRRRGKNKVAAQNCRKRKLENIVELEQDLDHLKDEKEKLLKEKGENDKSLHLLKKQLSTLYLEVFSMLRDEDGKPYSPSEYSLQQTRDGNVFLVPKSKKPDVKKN
Chain of Keap1/Nrf2 (Q14145 whole entry): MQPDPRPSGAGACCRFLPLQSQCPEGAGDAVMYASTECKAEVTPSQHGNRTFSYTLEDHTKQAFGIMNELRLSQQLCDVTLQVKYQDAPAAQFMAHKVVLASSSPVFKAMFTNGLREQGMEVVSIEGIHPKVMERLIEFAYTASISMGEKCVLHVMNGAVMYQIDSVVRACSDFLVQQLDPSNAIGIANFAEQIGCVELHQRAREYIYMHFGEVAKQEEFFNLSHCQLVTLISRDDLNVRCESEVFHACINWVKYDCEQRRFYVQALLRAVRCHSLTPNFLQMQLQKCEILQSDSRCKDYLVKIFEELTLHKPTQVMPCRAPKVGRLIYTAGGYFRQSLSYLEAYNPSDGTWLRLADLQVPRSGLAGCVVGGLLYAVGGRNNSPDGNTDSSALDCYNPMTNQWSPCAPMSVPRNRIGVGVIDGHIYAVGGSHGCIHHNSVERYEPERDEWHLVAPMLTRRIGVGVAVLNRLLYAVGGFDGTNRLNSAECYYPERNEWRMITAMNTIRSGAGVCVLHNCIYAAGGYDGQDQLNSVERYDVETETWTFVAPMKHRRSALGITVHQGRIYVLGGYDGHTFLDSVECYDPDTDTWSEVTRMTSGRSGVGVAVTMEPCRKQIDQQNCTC
Chain of Alkaline phosphatase, placental type (P05187 whole entry): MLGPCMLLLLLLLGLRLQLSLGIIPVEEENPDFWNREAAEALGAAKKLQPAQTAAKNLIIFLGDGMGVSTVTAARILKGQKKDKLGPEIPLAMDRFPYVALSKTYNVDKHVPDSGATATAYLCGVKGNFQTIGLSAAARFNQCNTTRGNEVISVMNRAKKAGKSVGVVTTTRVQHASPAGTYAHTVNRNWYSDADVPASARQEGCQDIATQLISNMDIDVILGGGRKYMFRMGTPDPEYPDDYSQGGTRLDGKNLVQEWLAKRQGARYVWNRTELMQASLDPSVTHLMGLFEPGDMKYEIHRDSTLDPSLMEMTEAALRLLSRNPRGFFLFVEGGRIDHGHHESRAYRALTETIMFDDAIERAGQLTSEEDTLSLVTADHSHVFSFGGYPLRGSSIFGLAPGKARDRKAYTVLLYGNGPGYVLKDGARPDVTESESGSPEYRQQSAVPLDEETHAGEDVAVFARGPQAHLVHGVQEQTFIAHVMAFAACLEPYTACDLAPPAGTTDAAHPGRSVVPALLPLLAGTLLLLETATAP
Chain of ORF 73 (O40947 whole entry): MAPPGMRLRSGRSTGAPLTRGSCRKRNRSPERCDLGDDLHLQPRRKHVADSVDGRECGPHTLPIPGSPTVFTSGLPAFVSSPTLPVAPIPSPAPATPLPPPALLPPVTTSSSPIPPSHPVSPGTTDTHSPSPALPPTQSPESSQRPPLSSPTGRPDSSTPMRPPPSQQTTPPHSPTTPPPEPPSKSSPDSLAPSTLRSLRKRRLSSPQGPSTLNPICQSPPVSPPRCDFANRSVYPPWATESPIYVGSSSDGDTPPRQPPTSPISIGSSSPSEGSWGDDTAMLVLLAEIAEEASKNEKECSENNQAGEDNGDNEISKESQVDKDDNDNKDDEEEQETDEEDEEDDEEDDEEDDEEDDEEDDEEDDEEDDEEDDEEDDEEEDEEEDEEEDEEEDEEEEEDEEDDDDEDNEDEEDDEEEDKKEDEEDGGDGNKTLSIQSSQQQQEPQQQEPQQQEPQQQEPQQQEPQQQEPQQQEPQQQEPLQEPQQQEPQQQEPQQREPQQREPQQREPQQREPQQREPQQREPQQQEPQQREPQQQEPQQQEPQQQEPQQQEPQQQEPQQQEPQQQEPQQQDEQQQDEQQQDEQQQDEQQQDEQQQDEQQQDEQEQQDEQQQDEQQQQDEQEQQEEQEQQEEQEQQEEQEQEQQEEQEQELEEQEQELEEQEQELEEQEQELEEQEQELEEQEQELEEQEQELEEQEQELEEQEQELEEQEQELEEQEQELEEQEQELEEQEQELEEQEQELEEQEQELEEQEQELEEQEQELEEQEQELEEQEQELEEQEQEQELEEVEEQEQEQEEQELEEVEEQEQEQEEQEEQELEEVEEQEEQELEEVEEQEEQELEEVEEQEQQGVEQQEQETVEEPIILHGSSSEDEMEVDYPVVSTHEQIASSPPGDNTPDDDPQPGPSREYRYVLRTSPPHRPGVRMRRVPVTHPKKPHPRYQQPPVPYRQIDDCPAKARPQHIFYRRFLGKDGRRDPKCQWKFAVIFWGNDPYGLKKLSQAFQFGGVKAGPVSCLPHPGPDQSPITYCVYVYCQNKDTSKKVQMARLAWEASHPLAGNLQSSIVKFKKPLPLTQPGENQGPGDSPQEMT
Chain of CAAX prenyl protease 2 (Q03530 whole entry): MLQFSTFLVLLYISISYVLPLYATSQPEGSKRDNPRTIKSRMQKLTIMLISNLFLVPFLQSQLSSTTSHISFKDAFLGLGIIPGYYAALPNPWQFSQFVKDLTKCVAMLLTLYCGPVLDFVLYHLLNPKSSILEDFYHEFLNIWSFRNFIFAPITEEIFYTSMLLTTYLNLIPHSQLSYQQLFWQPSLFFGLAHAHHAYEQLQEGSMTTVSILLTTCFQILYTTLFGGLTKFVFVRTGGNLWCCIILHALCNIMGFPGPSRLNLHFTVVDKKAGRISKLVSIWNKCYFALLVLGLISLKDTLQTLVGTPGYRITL

As for `CN1CC=C2C(C#N)=C(N)C(C#N)(C#N)[C@H](c3ccoc3)[C@H]2C1`, the AC50 – broadly, the concentration giving half of the maximal activity seen – in the experiment on Salmon testes DNA was 79 µM (active); at ORF 73, 58.9 µM (active); at Keap1/Nrf2 it was 47.9 µM (active). Moreover, the EC50 (usually the concentration needed to bring the measured effect to its halfway point) is > 7.94 µM (active) in [1] and 8.32 µM (active) on Troponin, cardiac muscle.
In the case of `CCNC(=O)NC(=O)C(C)OC(=O)c1cc2c(C)nn(Cc3ccc(Cl)cc3)c2s1` (stereo not drawn), in [2], the EC50 is > 50 µM (inactive).
With `COc1cccc(NC(=O)N2CCCN(Cc3ccccc3F)C2)c1`, the IC50 (in general, the concentration at which inhibition is half-maximal) in [3] is > 150 µM (active).
For `Cc1ccc(-c2cc(-c3ccccc3)cc(-c3ccccc3)[n+]2-c2ccccc2)cc1.[O-][Cl+3]([O-])([O-])[O-]`, the concentration giving a half-maximal response (EC50) was 43.8 µM (active) in experiment [4]; > 120 µM (not active) in experiment [5]; 4.34 µM (active) in the experiment with BJ [6]; > 120 µM (not active) in experiment [7]; 10.7 µM (active) in experiment [8]; 7.64 µM (active) in the experiment on BJ [9]. The EC50 in experiment [10] is 378 nM (active); in the experiment on BJ [11], 4.96 µM (active); in [12] it was 6.7 µM (active). Also, the AC50 is 29.1 µM (active) on CAAX prenyl protease 2 and 1.89 µM (active) in the experiment on INS1.
Turning to `Cc1ccc(NC(S)=NNC(=O)c2c(Cl)c(C)nn2C)cc1`, the IC50 in [13], in experiment [14] and in [15] was > 100 µM (inactive) throughout.
Take `CCc1sc(C(=O)Nc2cc(S(=O)(=O)N3CCOCC3)ccc2OC)cc1C`: the IC50 (on Cannabinoid receptor 2 [16]; on Cannabinoid receptor 1 [20]; in experiment [22]) was > 32 µM (inactive) in each case. The EC50 (in experiment [17]; on Cannabinoid receptor 2 [18]; in experiment [19]; on Cannabinoid receptor 1 [21]) was > 32 µM (inactive) throughout.
With `COc1cc(/C=N\NS(=O)(=O)c2ccccc2)cc(OC)c1OC`, in experiment [23], the EC50 is > 100 µM (inactive).
On to `COc1ccc2c(c1)sc(N)[n+]2Cc1cc(C)cc2cccnc12`, for which the EC50 in experiment [24] is 10.3 µM (active); in experiment [25], 10.3 µM (inconclusive); in experiment [26], 6.36 µM (inconclusive); in experiment [27] it was 711 nM (inconclusive); in experiment [28], 711 nM (active); in experiment [29] it was 6.36 µM (active).
As for `Nc1cccc2c1C(=O)N(C(=O)/C=C/c1cccc(F)c1)C2=O`, the “Absolute IC50 (CHOP)” value in experiment [30] was less than 10 µM. On X-box-binding protein 1, the “Absolute IC50 (XBP1)” value is 10 µM. Besides, the IC50 on Genome polyprotein is > 100 µM (active).
